Tested on: T1, B0AT1
T1 construct: gene SLC6A19; native full-length transporter in brush border membrane vesicles from rabbit ileal villus cells; not purified
Test: Na-dependent [3H]glutamine uptake into villus BBMV, […] s, rapid filtration
Format: biochemical, Oryctolagus cuniculus
Conditions: control (normal) rabbits; 0.2-100 mM glutamine; 100 mM NaCl versus choline chloride; pH 7.5; 3H-glutamine tracer

SMILES: NC(=O)CC[C@H](N)C(=O)O [glutamine]
- Km: 24.6 ± 1.8 mM

Source: publication PMC6128596, “Cyclooxygenase pathway mediates the inhibition of Na-glutamine co-transporter B0AT1 in rabbit villus cells during chronic intestinal inflammation” (PLoS ONE, 2018)
